pIC50: −log10 of the molar value. “Also recorded” adds a separate entry of the source.
Molecular target: NA of A/PR/8/34 (H1N1) (Influenza A virus, UniProt P03468)
Assay: biochemical
Type: biochemical, influenza A virus A/PR/8/34 (H1N1)

Chain of NA of A/PR/8/34 (H1N1) (P03468 whole entry): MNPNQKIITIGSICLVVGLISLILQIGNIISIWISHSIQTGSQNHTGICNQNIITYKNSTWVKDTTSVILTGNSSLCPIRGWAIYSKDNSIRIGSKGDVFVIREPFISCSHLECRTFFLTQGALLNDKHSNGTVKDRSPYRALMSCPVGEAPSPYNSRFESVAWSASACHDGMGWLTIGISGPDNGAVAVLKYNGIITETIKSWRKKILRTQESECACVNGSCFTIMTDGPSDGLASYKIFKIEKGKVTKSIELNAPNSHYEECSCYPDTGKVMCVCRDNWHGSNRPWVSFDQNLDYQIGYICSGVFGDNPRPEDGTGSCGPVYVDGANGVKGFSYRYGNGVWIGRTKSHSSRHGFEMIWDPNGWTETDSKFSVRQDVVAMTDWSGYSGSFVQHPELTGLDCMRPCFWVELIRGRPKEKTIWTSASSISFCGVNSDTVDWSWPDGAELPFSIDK

| SMILES | pIC50 | inhibitory effect against influenza H1N1 virus neuraminidase (in words) |
| --- | --- | --- |
| O=C(Oc1cc(O)c2c(c1)O[C@H](c1cc(O)c(O)c(O)c1)CC2)c1cc(O)c(O)c(O)c1 [Compound 2, (−)-5,3',4',5'-tetrahydroxyflavan-7-gallate] | 4.08 | higher inhibitory activities on NA from influenza H1N1 virus than on those from influenza H3N2 and B viruses; also recorded: moderate inhibitory effects |
| O=C(Oc1cc(O)c2c(c1)OC(c1cc(O)c(O)c(O)c1)C(O)C2)c1cc(O)c(O)c(O)c1 (single isomer, unassigned; (+)) [Compound 3, (+)-3,5,3',4',5'-penta-hydroxyflavan-7-gallate] | < 4.06 |  |
| CC1(C)O[C@@H]2Cc3c(O)cc(OC(=O)c4cc(O)c(O)c(O)c4)cc3O[C@@H]2c2cc(O)c(O)c(O)c21 [Compound 1, (2R,3R)-7-O-galloylplumbocatechin A] | 4.22 | higher inhibitory activities on NA from influenza H1N1 virus than on those from influenza H3N2 and B viruses; also recorded: moderate inhibitory effects; also recorded: best results |
| O=C(Oc1cc(O)c2c(c1)O[C@H](c1cc(O)c(OC(=O)c3cc(O)c(O)c(O)c3)c(O)c1)CC2)c1cc(O)c(O)c(O)c1 [Compound 4, (−)-7,4'-di-O-galloyltricetiflavan] | < 4.17 |  |
